Columns and labels:
[1] = system: disseminated L1210 murine leukemia; test: Antileukemic activity against disseminated L1210 murine leukemia (cells injected iv)
[2] = system: A549 human lung carcinoma; test: Antitumor activity on s.c. implanted A549 human lung carcinoma
[3] = system: MX1 mammary carcinoma; test: Antitumor activity on s.c. injected MX1 mammary carcinoma; assay type: in vivo, mice
[4] = system: H207 human ovarian carcinoma; test: Antitumor activity on s.c. implanted H207 human ovarian carcinoma
[5] = Table 2, CisPlatin alone 3 mg/kg/day iv q4dx2
[6] = Ia alone 1 mg/kg/day iv day +1,2
[7] = Ia alone 0.5 mg/kg/day iv 8,12,16
[8] = Ia alone 1 mg/kg/day iv 8,12,16
[9] = Table 2, Ia alone 1.5 mg/kg/day iv q4dx3
[10] = Table 3, Ia alone 2 mg/kg/day iv +7,11,15
[11] = Ia alone 1.5 mg/kg/day iv q4dx3
[12] = Taxotere alone 5 mg/kg/day iv 10,14,18
[13] = Taxotere alone 10 mg/kg/day iv 10,14,18
[14] = Table 3, Paclitaxel alone 22 mg/kg/day iv +9,13,17
[15] = Table 3, Paclitaxel alone 33 mg/kg/day iv +9,13,17
[16] = Paclitaxel alone 22 mg/kg/day iv q4dx3
[17] = Paclitaxel alone 33 mg/kg/day iv q4dx3

**Q.** With O=C1[O][Pt]2([NH][C@@H]3CCCC[C@H]3[NH]2)[O]C1=O [Oxaliplatinum, Oxaliplatin] as the compound, how does the “ILS % (increase in life span)” value ([1]; Oxaliplatinum alone 8 mg/kg/day ip day +3) read?
**A.** Its value is 83%.

**Q.** How did the “N° of Tumor-Free Survivors” value [2, 5] turn out when N.N.[Cl][Pt][Cl] [CisPlatin] was run?
**A.** Its value is 0/9.

**Q.** And the “T-C N° of days (tumor growth delay, 1 g)” value [2, 5]?
**A.** The value was 0 days.

**Q.** What about the “T.I. % (tumor inhibition)” value [2, 5] of the same compound?
**A.** The value was 16%.

**Q.** What about the “Body weight Reduction % (day)” value ([2]; Table 2, CisPlatin alone 3 mg/kg/day iv q4dx2, day 18) of the same compound?
**A.** The value was 2(18) %.

**Q.** For CC(=O)[C@]1(O)Cc2c(O)c3c(c(O)c2[C@@H](OC2CC(N4CC4)C(OS(C)(=O)=O)C(C)O2)C1)C(=O)c1ccccc1C3=O (some centres unmarked) [Ia, 4-demethoxy-3′-deamino-3′-aziridinyl-4′-methansulfonyl daunorubicin], which “ILS % (increase in life span)” value [1, 6] is on record?
**A.** The value was 83%.

**Q.** And the “Tox (number of toxic deaths/number of mice)” value [1, 6]?
**A.** Its value is 0/10.

**Q.** And the “Body weight Reduction % (day)” value [3, 7]?
**A.** The value was 0%.

**Q.** And the “N° of Tumor-Free Survivors” value [3, 7]?
**A.** Its value is 0/8.

**Q.** What about the “T.I. % (tumor inhibition)” value [3, 7] of the same compound?
**A.** Its value is 46%.

**Q.** And the “TGD (lg) days (tumor growth delay treated - control)” value (“TGD (lg) days” for short) [3, 7]?
**A.** Its value is 1 days.

**Q.** And the “Tox (number of toxic deaths/number of mice)” value [3, 7]?
**A.** The value was 0/8.

**Q.** What about the “N° of Tumor-Free Survivors” value [3, 8] of the same compound?
**A.** Its value is 1/7.

**Q.** And the “T.I. % (tumor inhibition)” value [3, 8]?
**A.** The value was 94%.

**Q.** And the “TGD (lg) days” value [3, 8]?
**A.** Its value is 2 days.

**Q.** And the “Tox (number of toxic deaths/number of mice)” value [3, 8]?
**A.** The value was 0/7.

**Q.** What about the “Body weight Reduction % (day)” value ([3]; Ia alone 1 mg/kg/day iv 8,12,16, day 17) of the same compound?
**A.** Its value is 5%.

**Q.** What about the “N° of Tumor-Free Survivors” value [2, 9] of the same compound?
**A.** Its value is 0/9.

**Q.** And the “T-C N° of days (tumor growth delay, 1 g)” value [2, 9]?
**A.** The value was 5 days.

**Q.** What about the “T.I. % (tumor inhibition)” value [2, 9] of the same compound?
**A.** The value was 48%.

**Q.** What about the “Tox (number of toxic deaths/number of mice)” value [2, 9] of the same compound?
**A.** The value was 0/9.

**Q.** And the “Body weight Reduction % (day)” value ([2]; Table 2, Ia alone 1.5 mg/kg/day iv q4dx3, day 14)?
**A.** The value was 9(14) %.

**Q.** And the “N° of Tumor-Free Survivors” value [2, 10]?
**A.** Its value is 0/8.

**Q.** What about the “T-C N° of days (tumor growth delay, 1 g)” value [2, 10] of the same compound?
**A.** The value was 9 days.

**Q.** And the “T.I. % (tumor inhibition)” value [2, 10]?
**A.** The value was 69%.

**Q.** And the “Tox (number of toxic deaths/number of mice)” value [2, 10]?
**A.** The value was 0/8.

**Q.** And the “Body weight Reduction % (day)” value ([2]; Table 3, Ia alone 2 mg/kg/day iv +7,11,15, day 13)?
**A.** The value was 11%.

**Q.** And the “N° of Tumor-Free Survivors” value [4, 11]?
**A.** The value was 0/7.

**Q.** What about the “T-C N° of days (tumor growth delay, 1 g)” value [4, 11] of the same compound?
**A.** The value was 47 days.

**Q.** And the “T.I. % (tumor inhibition)” value [4, 11]?
**A.** Its value is 100%.

**Q.** What about the “Tox (number of toxic deaths/number of mice)” value [4, 11] of the same compound?
**A.** The value was 0/7.

**Q.** And the “Body weight Reduction % (day)” value ([4]; Ia alone 1.5 mg/kg/day iv q4dx3, day 15)?
**A.** The value was 7%.

**Q.** For CC(=O)O[C@@]12CO[C@@H]1C[C@H](O)[C@@]1(C)C(=O)[C@H](O)C3=C(C)[C@@H](OC(=O)[C@H](O)[C@@H](NC(=O)OC(C)(C)C)c4ccccc4)C[C@@](O)([C@@H](OC(=O)c4ccccc4)[C@H]21)C3(C)C [Taxotere, Docetaxel], which “Body weight Reduction % (day)” value [3, 12] is on record?
**A.** The value was 0%.

**Q.** And the “N° of Tumor-Free Survivors” value [3, 12]?
**A.** The value was 0/8.

**Q.** And the “T.I. % (tumor inhibition)” value [3, 12]?
**A.** The value was 60%.

**Q.** And the “TGD (lg) days” value [3, 12]?
**A.** The value was 1 days.

**Q.** And the “Tox (number of toxic deaths/number of mice)” value [3, 12]?
**A.** Its value is 0/8.

**Q.** What about the “N° of Tumor-Free Survivors” value [3, 13] of the same compound?
**A.** The value was 2/8.

**Q.** And the “T.I. % (tumor inhibition)” value [3, 13]?
**A.** The value was 99%.

**Q.** What about the “TGD (lg) days” value [3, 13] of the same compound?
**A.** Its value is 42 days.

**Q.** What about the “Tox (number of toxic deaths/number of mice)” value [3, 13] of the same compound?
**A.** Its value is 0/8.

**Q.** What about the “Body weight Reduction % (day)” value ([3]; Taxotere alone 10 mg/kg/day iv 10,14,18, day 25) of the same compound?
**A.** The value was 8%.

**Q.** What does the source list for CC(=O)O[C@H]1C(=O)[C@@]2(C)[C@H]([C@H](OC(=O)c3ccccc3)[C@]3(O)C[C@H](OC(=O)[C@H](O)[C@@H](NC(=O)c4ccccc4)c4ccccc4)C(C)=C1C3(C)C)[C@]1(OC(C)=O)CO[C@@H]1C[C@@H]2O [Paclitaxel]?
**A.** Body weight Reduction % (day) [2, 14]: 0%; N° of Tumor-Free Survivors [2, 14]: 0/8; T-C N° of days (tumor growth delay, 1 g) [2, 14]: 27 days; T.I. % (tumor inhibition) [2, 14]: 90%; Tox (number of toxic deaths/number of mice) [2, 14]: 0/8; Body weight Reduction % (day) [2, 15]: 0%; N° of Tumor-Free Survivors [2, 15]: 0/8; T-C N° of days (tumor growth delay, 1 g) [2, 15]: 29 days; T.I. % (tumor inhibition) [2, 15]: 93%; Tox (number of toxic deaths/number of mice) [2, 15]: 0/8; Body weight Reduction % (day) [4, 16]: 0%; N° of Tumor-Free Survivors [4, 16]: 0/7; T-C N° of days (tumor growth delay, 1 g) [4, 16]: 9 days; T.I. % (tumor inhibition) [4, 16]: 80%; Tox (number of toxic deaths/number of mice) [4, 16]: 0/7; N° of Tumor-Free Survivors [4, 17]: 0/7; T-C N° of days (tumor growth delay, 1 g) [4, 17]: 12 days; T.I. % (tumor inhibition) [4, 17]: 86%; Tox (number of toxic deaths/number of mice) [4, 17]: 0/7; Body weight Reduction % (day) ([4]; Paclitaxel alone 33 mg/kg/day iv q4dx3, day 13): 3%
